We go through 15 compounds from patent US10653667B2, “Drug for preventing, treating or preventing metastasis of giant cell tumor that occurs in bone or soft parts, chondrosarcoma, or osteosarcoma, local injection for arterial embolization, and artificial bone” (NIPPON CHEMIPHAR CO., LTD, priority 2013, dated 2020).

“Also recorded” adds a separate entry of the source.

For data set [1], the system named is SW1353 cells. Nature of the data set: Cell invasion of SW1353 cells (Matrigel Invasion Chamber). In kind it is cell-based, human. The conditions noted are these: all set concentrations, concentration-dependent; 24 hours. The text has this: For the analysis of cell invasion, Matrigel™ Invasion Chamber (BD Bioscience, catalog number 354480), which uses Matrigel as the matrix, was used. […] FIGS. 76 and 77 show microphotographs of invaded cells fixed by immersion into a 4% paraformaldehyde solution, and stained with hematoxylin (magnification is 200 times). From the microphotographs of FIGS. 76 and 77, the patterns of the invaded cells can be understood.

Data set [2] deals with SW1353 cells. In words: Suppression of cell proliferation of chondrosarcoma cell line SW1353 (CCK-8). Format: cell-based, human. As to conditions: drug at various concentrations. The text has this: (§1) The H-EMC-SS cells were obtained from the Riken BioResource Center. As the SW1353 cells, those obtained from ATCC were used.
Data set [3] has as its system synovial cells derived from rheumatism patients. The conditions noted are these: cited from earlier work.
In another data set the test system is H-EMC-SS cells. In words: Suppression of cell proliferation of chondrosarcoma cell line H-EMC-SS (CCK-8). In kind it is cell-based, human. As to conditions: drug at various concentrations.
Text: The H-EMC-SS cells were obtained from the Riken BioResource Center.
as §1

The subject of data set [4] is cultured cells of giant cell tumor of tendon sheath (GCTT). In words: Suppression of cell proliferation of GCTT cultured cells (CCK-8). Format: cell-based, human. As to conditions: drug at various concentrations, CCK-8 24 hours after addition.
Another data set concerns colon cancer. As to conditions: cited from earlier work.
The test system of data set [5] is SW1353 cells. In words: Cell migration of human chondrosarcoma cell line SW1353. Format: cell-based. The conditions noted are these: 72 hours. The method, then:
The analysis of cell migration was performed by using a 6-well plate of TPP according to the method described in Takeuchi A, et al., Cancer Science, 104:740-749, 2013 (Low molecular weight heparin suppresses receptor for advanced glycation end products-mediated expression of malignant phenotype in human fibrosarcoma cells). Cells of the human chondrosarcoma cell line, SW1353, were cultured in the same manner as that of Example 1 until they became sub-confluent, and the cells were delaminated in a width of 1 mm using a micropipette tip (200 μl). […] Then, area of the cells migrated to the region where the cells were delaminated was measured by using Image J software (http://rsb.info.nih.gov/ij/index.html) (FIGS. 73 and 74).

Data set [6] concerns cultured cells of pigmented villonodular synovitis (PVNS). In words: Suppression of cell proliferation of PVNS cultured cells (CCK-8). Format: cell-based, human. The conditions noted are these: for suppression of cell proliferation (absorbance at 450 nm): PVNS cells, drug at various concentrations, CCK-8 24 hours after addition.
Data set [7] deals with GCTB cultured cells (case 1, case 2; GCT-1, GCT-2). Nature of the data set: Suppression of cell proliferation of GCTB cultured cells (Cell Counting Kit-8, WST assay). In kind it is cell-based, human. As to conditions: drug at various concentrations, CCK-8 24 hours after addition. The method, then: Tissue Int., 75:71-77), repeatedly subcultured until there were only spindle-shaped cells, which state was gradually attained from the state that there were also multinucleated giant cells observed in an early stage, and then used for the following analysis. […] Zaltoprofen was added as a solution in DMSO (dimethyl sulfoxide) prepared at a concentration 1000 times higher than the final concentration, and the solution was added in a volume of 0.1% of the volume of the medium. The same shall apply to the other drugs used in the following examples. […]

For a further data set, the system named is PVNS. The conditions noted are these: in vitro; cited from earlier work.
For data set [8], the system named is SW1353 cells. Nature of the data set: Proliferation of SW1353 cells cultured beforehand with PPARγ siRNA or control siRNA. Format: cell-based, human. The conditions noted are these: 100 μM rosiglitazone; 24 hours.
A further data set can be described thus: Solubility in DMSO. Format: physicochemical. As to conditions: limited highest test concentration (lornoxicam 80 μm, ampiroxicam 20 μm).
Where [9] appears, read: all set concentrations, concentration-dependent.

For the compound `O=C(O)Cc1ccccc1Nc1c(Cl)cccc1Cl` [diclofenac], in the data set on SW1353 cells [1], the “suppression of cell invasion of SW1353 cells” value is on record as “suppressed the cell invasion”. Further, in the data set with SW1353 cells [2], the “suppression of cell proliferation (absorbance at 450 nm)” value (from here on “suppression … (absorbance at 450 nm)”) was “suppressed proliferation”. In data set [3], the “activation of PPARγ” value was “activated PPARγ”, the apoptosis result is given as “caused apoptosis” and the “suppression of proliferation of the cells” value (shortened to “suppression … of the cells”) is recorded as “suppress proliferation”. In addition, in the data set on H-EMC-SS cells, the “suppression … (absorbance at 450 nm)” value is on record as “suppressed proliferation”. In addition, the “suppression … (absorbance at 450 nm)” value in data set [4] is “suppressed proliferation”. Also, the “occurrence of colon cancer” value in the data set on colon cancer (induced by repetitive administration of 1,2-dimethylhydrazine dihydrochloride to rats) was “prevented occurrence of colon cancer”. Also, in the data set on colon cancer (rats), the “amount of NF-κB protein in the large intestine” value is recorded as “reduced amount of NF-κB protein” and the “amount of the PPARγ protein” value is “increased amount of the PPARγ protein”. In addition, the “suppression of cell migration of SW1353 cells” value in the data set on SW1353 cells [5] (setting [9]) is reported as “suppressed the cell migration”. Further, in data set [6], the “suppression … (absorbance at 450 nm)” value is recorded as “suppressed proliferation”. Further, in data set [7], the “suppression of cell proliferation (live cell count, absorbance at 450 nm)” value is “suppressed in a drug concentration-dependent manner; also recorded: suppressed proliferation”.

With `CCc1cccc2c3c([nH]c12)C(CC)(CC(=O)O)OCC3` (stereo not drawn) [etodolac], the “suppression … (absorbance at 450 nm)” value (in the data set with SW1353 cells [2]; with H-EMC-SS cells; in data set [4]; in data set [6]) was “suppressed proliferation” throughout. Besides, the “suppression of cell proliferation (live cell count, absorbance at 450 nm)” value in data set [7] is recorded as “suppressed proliferation”.

For the compound `Cc1c(C)c2c(c(C)c1O)CCC(C)(COc1ccc(CC3SC(=O)NC3=O)cc1)O2` (stereo not drawn) [troglitazone], the “suppression of cell migration of SW1353 cells” value in the data set with SW1353 cells [5] (100 μM troglitazone) was “about 65%”.

In the case of `O=C(O)CCc1nc(-c2ccccc2)c(-c2ccccc2)o1` [oxaprozin], the “suppression … (absorbance at 450 nm)” value (with SW1353 cells [2]; in the data set on H-EMC-SS cells; in [4]; in data set [6]) was “suppressed proliferation” in each case. Besides, in data set [3], the “activation of PPARγ” value is “activated PPARγ”. Moreover, the apoptosis entry in data set [3] was “caused apoptosis”. Also, the “suppression … of the cells” value in [3] is “suppress proliferation”. In addition, the “suppression of the proliferation at the highest measured concentration” value in data set [6] (oxaprozin 200 μm, cells of pigmented villonodular synovitis as printed, 400 μm or higher could not be measured) is reported as “only slight suppression”. Besides, in [7], the “suppression of cell proliferation (live cell count, absorbance at 450 nm)” value is reported as “suppressed proliferation”.

In the case of `CC(=O)Nc1ccc(O)cc1` [acetaminophen], in the data set on SW1353 cells [1], the “suppression of cell invasion of SW1353 cells” value is given as “suppressed the cell invasion”. The “suppression … (absorbance at 450 nm)” value (in the data set with SW1353 cells [2]; with H-EMC-SS cells; in data set [4]; in [6]) was “suppressed proliferation” throughout. In addition, in [3], the “activation of PPARγ” value is “did not cause activation of PPARγ”. Further, in data set [3], the apoptosis entry is “did not cause”. For the same compound, the “suppression … of the cells” value in [3] is given as “did not cause”. For the same compound, the “suppression of cell migration of SW1353 cells” value with SW1353 cells [5] (setting [9]) is recorded as “suppressed the cell migration”. In addition, the “suppression of cell proliferation (live cell count, absorbance at 450 nm)” value in data set [7] was “suppressed in a drug concentration-dependent manner; also recorded: suppressed proliferation”.

With `COc1ccc(-c2noc(CC(=O)O)c2-c2ccc(OC)cc2)cc1` [mofezolac], the “suppression … (absorbance at 450 nm)” value (with SW1353 cells [2]; with H-EMC-SS cells; in data set [4]; in data set [6]) was “suppressed proliferation” each time. For the same compound, the “suppression of cell proliferation (live cell count, absorbance at 450 nm)” value in data set [7] is reported as “suppressed proliferation”.

In the case of `COc1ccc2c(c1)c(CC(=O)O)c(C)n2C(=O)c1ccc(Cl)cc1` [indomethacin], in the data set with SW1353 cells [1], the “suppression of cell invasion of SW1353 cells” value is “suppressed the cell invasion”. Also, the “suppression … (absorbance at 450 nm)” value (in the data set with SW1353 cells [2]; in the data set on H-EMC-SS cells; in data set [4]; in data set [6]) was “suppressed proliferation” in each case. For the same compound, the “activation of PPARγ” value in [3] is “activated PPARγ”. Also, in [3], the apoptosis result was “caused apoptosis”. The “suppression … of the cells” value in [3] is reported as “suppress proliferation”. For the same compound, in the data set with SW1353 cells [5] (setting [9]), the “suppression of cell migration of SW1353 cells” value is on record as “suppressed the cell migration”. Also, the “suppression of cell proliferation (live cell count, absorbance at 450 nm)” value in data set [7] was “suppressed in a drug concentration-dependent manner; also recorded: suppressed proliferation”.

Take `NC(=O)c1ncn([C@@H]2O[C@H](CO)[C@@H](O)[C@H]2O)c1O` [mizoribine]: in the data set on PVNS, the “inhibition of proliferation of PVNS” value was “slightly inhibited proliferation”.

`COc1ccc2cc([C@H](C)C(=O)O)ccc2c1` [naproxen]: the “suppression … (absorbance at 450 nm)” value (in the data set on SW1353 cells [2]; in the data set with H-EMC-SS cells; in data set [4]; in [6]) was “suppressed proliferation” each time. In addition, in data set [7], the “suppression of cell proliferation (live cell count, absorbance at 450 nm)” value is on record as “suppressed proliferation”.

With `CN(CCOc1ccc(CC2SC(=O)NC2=O)cc1)c1ccccn1` (stereo not drawn) [rosiglitazone], in the data set on SW1353 cells [8], the “suppression of proliferation of SW1353 cells” value is on record as “about 61%”.

Take `CS(=O)(=O)Nc1ccc([N+](=O)[O-])cc1OC1CCCCC1` [NS-398]: in data set [3], the “activation of PPARγ” value is “did not activate PPARγ”, the apoptosis result was “did not cause apoptosis” and the “suppression … of the cells” value is “suppressed proliferation”.

Consider `Cc1ccc(-c2cc(C(F)(F)F)nn2-c2ccc(S(N)(=O)=O)cc2)cc1` [celecoxib], for which the “suppression of cell migration of SW1353 cells” value in the data set on SW1353 cells [5] (75 μM celecoxib) is “higher than 80%”.

In the case of `COc1ccc2c(c1)c(CC(=O)OCC(=O)O)c(C)n2C(=O)c1ccc(Cl)cc1` [acemetacine, acemetacin], the “suppression … (absorbance at 450 nm)” value (with SW1353 cells [2]; in the data set with H-EMC-SS cells; in [4]; in data set [6]) was “suppressed proliferation” in each case. In addition, in data set [7], the “suppression of cell proliferation (live cell count, absorbance at 450 nm)” value is on record as “suppressed proliferation”.

For `CCOC(=O)OC(C)OC1=C(C(=O)Nc2ccccn2)N(C)S(=O)(=O)c2ccccc21` (stereo not drawn) [ampiroxicam], the “suppression … (absorbance at 450 nm)” value (in the data set with SW1353 cells [2]; with H-EMC-SS cells; in data set [4]; in data set [6]) was “suppressed proliferation” throughout. Further, the “solubility in DMSO (dimethyl sulfoxide)” value in the data set “Solubility in DMSO” was “low solubility”. The “suppression of cell proliferation (live cell count, absorbance at 450 nm)” value in [7] is “suppressed proliferation”.

As to `CN1C(C(=O)Nc2ccccn2)=C(O)c2sc(Cl)cc2S1(=O)=O` [lornoxicam], the “suppression … (absorbance at 450 nm)” value (in the data set on SW1353 cells [2]; with H-EMC-SS cells; in data set [4]; in data set [6]) was “suppressed proliferation” in each case. For the same compound, the “solubility in DMSO (dimethyl sulfoxide)” value in “Solubility in DMSO” is reported as “low solubility”. Moreover, in [7], the “suppression of cell proliferation (live cell count, absorbance at 450 nm)” value was “suppressed proliferation”.
